# Results from patent US20220125944A1, “ANTIBODY-DRUG CONJUGATE AND USE THEREOF” (priority 2019, published 2022).
# Where two headings read alike, the source gives them in different places.
# T1: NaPi2b (UniProt O95436 1-690, limits assumed)
# T1 sequence (looked up): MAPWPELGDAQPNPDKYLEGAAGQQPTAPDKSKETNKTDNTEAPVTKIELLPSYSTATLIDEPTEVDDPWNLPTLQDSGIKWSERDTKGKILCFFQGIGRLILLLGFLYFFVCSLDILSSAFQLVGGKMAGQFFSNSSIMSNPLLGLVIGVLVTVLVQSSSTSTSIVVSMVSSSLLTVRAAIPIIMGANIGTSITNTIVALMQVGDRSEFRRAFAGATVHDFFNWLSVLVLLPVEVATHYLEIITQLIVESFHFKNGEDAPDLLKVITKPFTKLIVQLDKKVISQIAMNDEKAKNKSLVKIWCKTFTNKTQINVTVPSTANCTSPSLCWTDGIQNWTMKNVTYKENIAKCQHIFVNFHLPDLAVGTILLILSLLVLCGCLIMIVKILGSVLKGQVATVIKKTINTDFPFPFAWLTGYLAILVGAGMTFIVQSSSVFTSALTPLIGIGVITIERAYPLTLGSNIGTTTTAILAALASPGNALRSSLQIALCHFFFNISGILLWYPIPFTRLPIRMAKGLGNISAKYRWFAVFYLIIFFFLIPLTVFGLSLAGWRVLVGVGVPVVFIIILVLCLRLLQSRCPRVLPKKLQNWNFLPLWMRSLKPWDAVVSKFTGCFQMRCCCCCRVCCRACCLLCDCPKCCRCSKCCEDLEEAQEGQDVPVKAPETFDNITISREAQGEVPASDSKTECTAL
# T2: CLL-1 (UniProt Q5QGZ9 1-265, limits assumed)
# T2 sequence (looked up): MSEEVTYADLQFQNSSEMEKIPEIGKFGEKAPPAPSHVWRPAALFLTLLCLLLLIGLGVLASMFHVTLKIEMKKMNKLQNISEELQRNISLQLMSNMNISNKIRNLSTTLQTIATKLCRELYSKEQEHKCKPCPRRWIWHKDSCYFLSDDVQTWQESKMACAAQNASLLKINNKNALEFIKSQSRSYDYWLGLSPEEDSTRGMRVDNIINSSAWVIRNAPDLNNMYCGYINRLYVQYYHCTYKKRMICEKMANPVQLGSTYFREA
# B1: D20002 (10H1-PD001) (antibody, human IgG1, kappa, V domains shown)
# VH: EVQLVESGGGLVQPGGSLRLSCAASGFSFSDFAMSWVRQAPGKGLEWVATIGRVAFHTYYPDSMKGRFTISRDNSKNTLYLQMNSLRAEDTAVYYCARHRGFDVGHFDFWGQGTLVTVSS
# VL: DIQMTQSPSSLSASVGDRVTITCRSSETLVHSSGNTYLEWYQQKPGKAPKLLIYRVSNRFSGVPSRFSGSGSGTDFTLTISSLQPEDFATYYCFQGSFNPLTFGQGTKVEIKR
# modifications: linker-drug PD001 conjugated to a cysteine put in place of lysine 149 (Kabat numbering) of the light chain
# B2: D20502 (6E7-PD009) (antibody, human IgG1, kappa, V domains shown)
# VH: B1 VH
# VL: DIQMTQSPSSLSASVGDRVTITCRASQSVSTSSYNYMHWYQQKPGKPPKLLIKYASNLESGVPSRFSGSGSGTDFTLTISSLQPEDFATYYCQHSWEIPLTFGQGTKVEIKR
# modifications: linker-drug PD009 conjugated to a cysteine put in place of lysine 149 (Kabat numbering) of the light chain
# Columns and labels:
# Mino = experiment: Cytotoxicity of linker-drug complex, Mino; format: cell-based; details: Homo sapiens
# Protocol: (§1) The cytotoxicity of the linker-drug complex itself prepared to contain beta-galactosidase was evaluated. Specifically, each of the linker-drug complexes dissolved in DMSO was serially diluted 3× from 200 nM to 30 pM in a medium for cell culture to prepare a sample, and various cancer cell lines were treated with the sample to finally expose the cells to 100 nM to 15 pM the linker-drug complexes. The cells were cultured for 6 days, cell viability was observed using a CCK-8 cell-counting kit and cytotoxicity was evaluated.
# Jeko-1 = experiment: Cytotoxicity of linker-drug complex, Jeko-1; format: cell-based; details: Homo sapiens
# Protocol: as §1
# Daudi = experiment: Cytotoxicity of linker-drug complex, Daudi; format: cell-based; details: Homo sapiens
# Protocol: as §1
# Raji = experiment: Cytotoxicity of linker-drug complex, Raji; format: cell-based; details: Homo sapiens
# Protocol: as §1
# 697 = experiment: Cytotoxicity of linker-drug complex, 697; format: cell-based
# Protocol: as §1
# jurkat = experiment: Cytotoxicity of linker-drug complex, jurkat; format: cell-based; details: Homo sapiens
# Protocol: as §1
# H929 = experiment: Cytotoxicity of linker-drug complex, H929; format: cell-based; details: Homo sapiens
# Protocol: as §1
# OPM-2 = experiment: Cytotoxicity of linker-drug complex, OPM-2; format: cell-based; details: Homo sapiens
# Protocol: as §1
# U266 = experiment: Cytotoxicity of linker-drug complex, U266; format: cell-based; details: Homo sapiens
# Protocol: as §1
# Calu-6 = experiment: Cytotoxicity of linker-drug complex, Calu-6; format: cell-based; details: Homo sapiens
# Protocol: as §1
# HCC1954 = experiment: Cytotoxicity of linker-drug complex, HCC1954; format: cell-based; details: Homo sapiens
# Protocol: as §1
# JIMT1 = experiment: Cytotoxicity of linker-drug complex, JIMT1; format: cell-based; details: Homo sapiens
# Protocol: as §1
# NCI-N87 = experiment: Cytotoxicity of linker-drug complex, NCI-N87; format: cell-based; details: Homo sapiens
# Protocol: as §1
# NaPi2b [1] = biological target: T1, NaPi2b; experiment: cell-based or functional assay
# NaPi2b [2] = biological target: T1, NaPi2b; experiment: cell-based or functional assay; remark: listed apart in the source
# CLL-1 = biological target: T2, CLL-1; experiment: cell-based or functional assay
molecule,measurement,setting,value
O=C(CCCCCN1C(=O)C=CC1=O)NCCOc1cc(/C=C/C(=O)N2C[C@@H](CCl)c3c2cc(O[C@@H]2O[C@H](CO)[C@H](O)[C@H](O)[C@H]2O)c2ccccc32)ccc1/C=C/C(=O)N1C[C@@H](CCl)c2c1cc(O[C@@H]1O[C@H](CO)[C@H](O)[C@H](O)[C@H]1O)c1ccccc21 [PD001],IC50,"Mino; 144 h, read-out: IC50 #1",3.26 nM
same,IC50,"Mino; 144 h, read-out: IC50 #2",2.34 nM
same,IC50,Mino; read-out: IC50 Mean,2.76 nM
same,IC50,"Jeko-1; JeKo-1, 144 h, read-out: IC50 #1",13.1 nM
same,IC50,"Jeko-1; JeKo-1, read-out: IC50 #2",31.7 nM
same,IC50,"Jeko-1; JeKo-1, read-out: IC50 Mean",20.4 nM
same,IC50,"Daudi; 144 h, read-out: IC50 #1",12.5 nM
same,IC50,Daudi; read-out: IC50 #2,9.46 nM
same,IC50,Daudi; read-out: IC50 Mean,10.9 nM
same,IC50,"Raji; 144 h, Burkitt's lymphoma, run #1, 6 days, CCK-8, read-out: IC50 #1",30.8 nM
same,IC50,"Raji; mean of #1 and #2, read-out: IC50 Mean",18.4 nM
same,IC50,"Raji; run #2, read-out: IC50 #2",11 nM
same,IC50,"697; 144 h, read-out: IC50 #1",4.78 nM
same,IC50,697; read-out: IC50 #2,3.72 nM
same,IC50,697; read-out: IC50 Mean,4.22 nM
same,IC50,"jurkat; 144 h, read-out: IC50 #1",14.5 nM
same,IC50,jurkat; read-out: IC50 #2,1.12 nM
same,IC50,jurkat; read-out: IC50 Mean,12.7 nM
same,IC50,"H929; NCI-H929, 144 h, read-out: IC50 #1",20.3 nM
same,IC50,"H929; NCI-H929, read-out: IC50 #2",26.4 nM
same,IC50,"H929; NCI-H929, read-out: IC50 Mean",23.1 nM
same,IC50,"OPM-2; OPM-2, 144 h, read-out: IC50 #1",26.2 nM
same,IC50,"OPM-2; OPM-2, read-out: IC50 #2",25.6 nM
same,IC50,"OPM-2; OPM-2, read-out: IC50 Mean",25.9 nM
same,IC50,"U266; U-266, 144 h, read-out: IC50 #1",7.97 nM
same,IC50,"U266; U-266, read-out: IC50 #2",5.61 nM
same,IC50,"U266; U-266, read-out: IC50 Mean",6.69 nM
same,IC50,"Calu-6; Calu-6, 144 h, read-out: IC50 #1",58.9 nM
same,IC50,"Calu-6; Calu-6, read-out: IC50 #2",52.2 nM
same,IC50,"Calu-6; Calu-6, read-out: IC50 Mean",55.4 nM
same,IC50,"HCC1954; HCC1954, 144 h, read-out: IC50 #1",25 nM
same,IC50,"HCC1954; HCC1954, read-out: IC50 #2",16.4 nM
same,IC50,"HCC1954; HCC1954, read-out: IC50 Mean",20.2 nM
same,IC50,"JIMT1; JIMT-1, 144 h, read-out: IC50 #1",47 nM
same,IC50,"JIMT1; JIMT-1, read-out: IC50 #2",24.9 nM
same,IC50,"JIMT1; JIMT-1, read-out: IC50 Mean",34.2 nM
same,IC50,"NCI-N87; NCI-N87, 144 h, read-out: IC50 #1",8.06 nM
same,IC50,"NCI-N87; NCI-N87, read-out: IC50 #2",9.09 nM
same,IC50,"NCI-N87; NCI-N87, read-out: IC50 Mean",8.56 nM
B1,"IC50, cytotoxicity on OVCAR-3",NaPi2b [1],1.53 nM
same,non-binder/binder ratio on OVCAR-3,NaPi2b [1],≥ 100
same,"IC50 (nM), cytotoxicity on OVCAR3",NaPi2b [2],1.5 nM
B2,"IC50 (nM), cytotoxicity on EDL-1 (AML)",CLL-1,0.3 nM
